# In patent US4797506A, “6-substituted prostaglandins E1 and process for producing same” (Teijin Limited, priority 1984, dated 1989):
# What was measured:
# [1] = test system: platelet aggregation; details: compared with prostacyclin; cited from earlier work
# [2] = test system: ulcer formation induced by indomethacin; experiment: Inhibition of indomethacin-induced ulcer formation in rats (antiulcerative effect); type: in vivo, Wister male rats; details: Rattus norvegicus, P.O., 30 minutes before oral indomethacin 20 mg/kg, ulcer length 5 hours after indomethacin
# Description: (i) Determination of Antiulcerative Effect
# The inhibiting effect on ulcer formation induced by indomethacin was examined by using rats. Wister male rats (7 weeks old, body weight 220 g) were abstained from food for 24 hours except giving water and then subjected to experiments.
# The sample compounds to be tested were dissolved in a phosphoric acid buffer (pH 7.4) containing 0.9% NaCl and the solution was orally administered to the rats. 30 minutes after the administration, indomethacin was orally administered to the rats at a dose of 20 mg/kg. 5 hours after the administration of the indomethacin, the rats were killed and the ulcer formation in the stomach was examined by determining the length of the ulcer formation portion under a stereomicroscope. From this measurement, the inhibition of ulcer formation by the sample compounds was calculated to determine the ED50 values.
# [3] = test system: platelet aggregation; experiment: In vitro platelet aggregation inhibition (ADP-induced, PRP); type: cell-based, Japanese white male domestic rabbits; details: Oryctolagus cuniculus, rabbit PRP, 10 μM ADP, 37° C., sample in ethanol diluted with phosphoric acid buffer pH 7.4, left at 0° C. for 4 hours, lowest concentration at which the inhibition is 50%, read-out: Anti-platelet aggregation effect IC50
# Description: (ii) In vitro PlateletAAggregation Inhibition Effect
# The in vitro platelet aggregation inhibition effect of the sample compounds to be tested was examined by using rabbits. That is, blood was collected from the ear vein of native Japanese white male domestic rabbits weighing 2.5 to 3.5 kg. The collected blood was 9 parts by volume per 1 part by volume of a 3.8% sodium citrate solution. The blood was centrifuged at 100 r.p.m. for 10 minutes. The upper layer portion was separated as PRP (rich in platelet blood plasma). The lower layer portion was further centrifuged at 2800 r.p.m. for 10 minutes to divide it into two layers. The upper layer portion was separated as PPP (poor in platelet blood plasma). The member of the platelet was diluted with PPP to 6 to 7×10^' /μl. After the adjustment, 25 μl of the sample compound was added to 250 μl of PRP, which was preincubated at a temperature of 37° C. for 2 minutes. […]
# When the activity of the sample compounds was determined, the ethanol solution was diluted with a phosphoric acid buffer (pH 7.4). The ethanol solution diluted with the buffer was left to stand at a temperature of 0° C. for 4 hours, after which the activity of the sample compounds was determined in the same manner.
# The agglutination inhibition was calculated by the following formula: [formula] […]
SMILES,platelet aggregation inhibition effect [1],ED50 [2],IC50 [3]
CCCCC[C@H](O)/C=C/[C@H]1[C@H](O)CC(=O)[C@@H]1CC(=O)CCCCC(=O)O [6-oxoprostaglandin E1],as strong as those of prostacyclin,,
CCCCC(C)(O)C/C=C/[C@H]1[C@H](O)CC(=O)[C@@H]1CC(CCCCC(=O)OC)[N+](=O)[O-] (stereo partly drawn),,0.022 mg/kg,> 100 µg/mL
